Measured values: ChEMBL document CHEMBL3272213, “Synthesis and pharmacology of novel anxiolytic agents derived from 2-[(dialkylamino)methyl-4H-triazol-4-yl] benzophenones and related heterocyclic benzophenones” (1976)

Legend:
Assay type in all cases: functional
[1] = test system: Mus musculus; test: Anxiolytic activity in ip dosed male albino CF-1 mouse assessed as inhibition of nicotine-induced death
[2] = test system: Mus musculus; test: Anxiolytic activity in ip dosed male albino CF-1 mouse assessed as inhibition of pentylenetetrazole-induced clonic convulsions; conditions: CF-1, ip
[3] = test system: Mus musculus; test: Anxiolytic activity in ip dosed male albino CF-1 mouse assessed as decrease in traction reflex
[4] = test system: Mus musculus; test: Anxiolytic activity in ip dosed male albino CF-1 mouse assessed as inhibition of nicotine-induced tonic extensor convulsions
[5] = test system: Mus musculus; test: Anxiolytic activity in ip dosed male albino CF-1 mouse assessed as decrease in dish reflex
[6] = test system: Mus musculus; test: Anxiolytic activity in ip dosed male albino CF-1 mouse assessed as inhibition of electroshock-induced convulsions; conditions: CF-1, ip
[7] = test system: Mus musculus; test: Anxiolytic activity in ip dosed male albino CF-1 mouse assessed as inhibition of strychnine-induced lethality; conditions: CF-1, ip
[8] = test system: Mus musculus; test: Potentiation of ethanol-induced anxiolytic activity in ip dosed male albino CF-1 mouse; conditions: CF-1, ip
[9] = test system: Mus musculus; test: Anxiolytic activity in ip dosed male albino CF-1 mouse assessed as inhibition of thiosemicarbazide -induced lethality; conditions: CF-1, ip
[10] = Mus musculus, CF-1, ip, read-out: ED50

SMILES | ED50 [1, 10] [mg/kg] | ED50 [2] [mg/kg] | ED50 [3, 10] [mg/kg] | ED50 [4, 10] [mg/kg] | ED50 [5, 10] [mg/kg] | ED50 [6] [mg/kg] | ED50 [7] [mg/kg] | ED50 [8] [mg/kg] | ED50 [9] [mg/kg] | ED50 [1] [mg/kg] | ED50 [3] [mg/kg] | ED50 [4] [mg/kg] | ED50 [5] [mg/kg]
CCN(CC)CC(=O)Nc1ccc(Cl)cc1C(=O)c1ccccc1 | 28 | 140 | > 200 | 23 | 100 | – | – | – | – | – | – | – | –
Cc1nnc(CN(C)C)n1-c1ccc(Cl)cc1C(=O)c1ccccc1Cl | 0.14 | 0.28 | 3.2 | 0.14 | 0.25 | 50 | 11 | 0.63 | 0.02 | – | – | – | –
CN(C)Cc1nnc(-c2ccncc2)n1-c1ccc(Cl)cc1C(=O)c1ccccc1Cl | 11 | – | > 100 | 11 | 20 | > 100 | > 50 | – | 4.4 | – | – | – | –
Cc1nnc(CN(C)C)n1-c1ccccc1C(=O)c1ccccc1Cl | 5 | 7 | > 100 | 5 | 22 | > 100 | > 50 | > 100 | 3.6 | – | – | – | –
Cc1nnc(CN(C)C)n1-c1ccc(Cl)cc1C(=O)c1ccccc1 | 0.5 | 1.1 | 5 | 0.5 | 2.2 | 45 | 5 | 1.1 | 0.3 | – | – | – | –
Cc1nnc(CN2CCCC2)n1-c1ccc(Cl)cc1C(=O)c1ccccc1 | 0.4 | 2 | 4 | 0.4 | 1.3 | 89 | 4 | 1.8 | 2 | – | – | – | –
Cc1nnc(CN2CCCC2)n1-c1ccc(Cl)cc1C(=O)c1ccccc1Cl | 1.8 | 4 | 18 | 1.3 | 1 | > 100 | 1 | 6 | 1.1 | – | – | – | –
Cc1nnc(CN2CCCC2)n1-c1ccc(Cl)cc1Cc1ccccc1 | 36 | > 100 | > 100 | 36 | 40 | – | – | – | – | – | – | – | –
Cc1nnc(CN2CCOCC2)n1-c1ccc(Cl)cc1C(=O)c1ccccc1 | 0.5 | 1.8 | 5 | 0.45 | 1.8 | > 50 | 6.3 | 4.4 | 0.8 | – | – | – | –
CNCc1nnc(C)n1-c1ccc(Cl)cc1C(=O)c1ccccc1 | 0.1 | 1.1 | 2.5 | 0.1 | 0.8 | 63 | 3.2 | 2 | 0.3 | – | – | – | –
CCNCc1nnc(C)n1-c1ccc(Cl)cc1C(=O)c1ccccc1 | 0.2 | 0.5 | 2.5 | 0.2 | 1 | 45 | 45 | 0.6 | 0.6 | – | – | – | –
CN(C)Cc1nnc(C2CC2)n1-c1ccc(Cl)cc1C(=O)c1ccccc1Cl | 0.6 | 1 | 7.1 | 0.6 | 1.1 | 79 | 5 | 2.2 | 0.4 | – | – | – | –
CN(C)Cc1nnc(-c2ccco2)n1-c1ccc(Cl)cc1C(=O)c1ccccc1 | 16 | 23 | 71 | 16 | 28 | > 100 | 45 | 25 | 8 | – | – | – | –
Cc1nnc(CN)n1-c1ccc(Cl)cc1C(O)c1ccccc1 (stereo not given) | 1.6 | 4 | 9 | 1.6 | 2.8 | 71 | 28 | 3.1 | 1.2 | – | – | – | –
CN(C)Cc1nccn1-c1ccc(Cl)cc1C(=O)c1ccccc1Cl | 1.2 | 1.8 | 11 | 1 | 2.2 | – | > 50 | 2.5 | 1.1 | – | – | – | –
Cc1nc(CN(C)C)n(-c2ccc(Cl)cc2C(=O)c2ccccc2Cl)c1CO | 1 | 1.8 | 18 | 1 | 3.5 | 100 | > 25 | 18 | 2 | – | – | – | –
CN(C)Cc1nn(CO)c(=O)n1-c1ccc(Cl)cc1C(=O)c1ccccc1Cl | 0.13 | 0.32 | 6.3 | 0.13 | 1 | > 100 | 12.5 | 2 | 0.23 | – | – | – | –
CNCc1nn(C)c(=O)n1-c1ccc(Cl)cc1C(=O)c1ccccc1.Cl | 0.56 | 5.6 | 12.5 | 0.45 | 4 | – | – | – | – | – | – | – | –
CN(C)CCn1nc(CN(C)C)n(-c2ccc(Cl)cc2C(=O)c2ccccc2)c1=O | 6.3 | 18 | 100 | 6.3 | 28 | > 100 | > 100 | 80 | 9 | – | – | – | –
NCC(=O)Nc1ccc(Cl)cc1C(=O)c1ccccc1 | 0.25 | – | 32 | 0.25 | 5.6 | 29 | 22 | 2.5 | 1.6 | – | – | – | –
Cc1nnc(CN2CCCC2)n1-c1ccc(Cl)cc1C(O)c1ccccc1 (stereo in doubt; 20) | – | – | – | – | – | – | – | – | – | 8 | >25 | 8 | 16
Cc1nnc(CN2CCCC2)n1-c1ccc(Cl)cc1C(O)c1ccccc1 (stereo in doubt; 21) | – | 14 | – | – | – | – | – | – | – | 32 | >200 | 32 | 5
Cc1nnc2n1-c1ccc(Cl)cc1C(c1ccccc1)=NC2 [ALPRAZOLAM] | 0.02 | 0.2 | 0.6 | 0.02 | 0.056 | 25.5 | 0.3 | 0.16 | 0.16 | – | – | – | –
CN1C(=O)CN=C(c2ccccc2)c2cc(Cl)ccc21 [DIAZEPAM] | 0.11 | 0.8 | 5 | 0.11 | 0.31 | 20 | 3.6 | 1 | 0.2 | – | – | – | –
Cc1nnc2n1-c1ccc(Cl)cc1C(c1ccccc1Cl)=NC2 [TRIAZOLAM] | 0.014 | 0.03 | 0.6 | 0.013 | 0.028 | 32 | 0.23 | 0.63 | 0.028 | – | – | – | –
